Assay results reported in a melting point compilation (Tetko et al.; mined from patent text by program, amines drawn as free bases though some values may be those of a salt).

Work on CC(C)(C)C(=O)OCN(c1ccc(CN2CCN(Cc3ccccc3)C(=O)C2=O)cc1)c1ncccn1 yielded a melting point of 144 to 146 °C. Work on COc1ccc2c(c1)C(=O)c1ccccc1C2=O yielded a melting point of 195 to 197 °C. With CCCC(CCC)N1Cc2c(C(=O)OC)cc(NS(C)(=O)=O)cc2C1=O the melting point was 173 °C. Work on Cc1noc(C)c1CC(C)(NC(=O)OC1C2CC3CC(C2)CC1C3)C(=O)NCCc1ccccc1 (configuration not stated) yielded a melting point of 70 to 73 °C. With Fc1cc(F)nc(NCc2ccccc2)n1 the melting point was 70 to 73 °C. In the case of Cc1cccc(C2=C(c3ccc(F)c(-c4cn[nH]c4)c3)NN(C(C)C)C2)n1, the melting point is reported as 129 to 136 °C. CN1C(=O)CC[C@]2(C)c3ccc(-c4ccc(C(C)(C)C)cc4)cc3CC[C@@H]12 showed a melting point of 141 to 147 °C. Work on COc1cc2nc(N)nc(-c3ccc(Br)cc3CO)c2cc1OC yielded a melting point of 222 to 223 °C. NC1C(=O)N2C1SC1(CCOCC1)C2C(=O)O (configuration not stated) gave a melting point of 189 to 192 °C. With CC(C)(C)C(NC(=O)c1cccc(-c2ccccc2)c1)Nc1c(Nc2cccnc2)c(=O)c1=O (configuration not stated) the melting point was 240 to 241 °C. In the case of COC(=O)COc1cc(C(=O)OC)nc2ccccc12, the melting point is reported as 121 to 123 °C. COC(=O)CN(N)CC(=O)OC gave a melting point of 166 °C. With CNCC1Cc2cc(F)cc(-c3cc(Cl)ccc3Cl)c2O1 (configuration not stated) the melting point was 118 to 120 °C. Compound COc1ccc(Cn2c(=O)n(C3CCCCC3)c3cc(Cl)ccc32)cc1OC has a melting point of 59 °C. Compound CCOC(=O)c1c(N2CCN(C(=O)c3cccs3)CC2)c2cccnc2n(Cc2ccccc2F)c1=O has a melting point of 105 to 110 °C. NS(=O)(=O)c1ncnc2c1ccn2C1CC(O)C(CO)O1 (configuration not stated) gave a melting point of 175 to 177 °C. Compound O=C(CN1CCC(Cc2ccc(F)cc2)CC1)Nc1cccc([N+](=O)[O-])c1 has a melting point of 118 to 120 °C. CC1(C)NC(C(=O)O)C(C)(C)S1 (configuration not stated) showed a melting point of 206 to 208 °C. In the case of C[C@@H]1[C@H](c2ccccc2)[C@]1(NS(=O)(=O)c1ccc(-c2cc(C(C)(F)F)on2)s1)C(=O)O, the melting point is reported as 177 to 178 °C. Cc1cc([N+](=O)[O-])ccc1NC(=O)C1=C(O)N(C)S(=O)(=O)c2cscc21 gave a melting point of 186 to 188 °C. In the case of CC(COc1ccc(CC(N)=O)cc1Cl)NCC(O)c1cccc(Cl)c1 (configuration not stated), the melting point is reported as 99 to 101 °C. CC1CC(=O)c2cc(F)ccc2S1(=O)=O (configuration not stated) showed a melting point of 113 to 114 °C. In the case of CC(C)(C)NC(=O)c1nn(-c2ccc(F)cc2Cl)c2c1C1CCC2C1 (configuration not stated), the melting point is reported as 122 to 124 °C. Work on CCOc1nn(Cc2ccc(OCc3nc(-c4ccccc4)oc3C)cc2)cc1CCC(=O)O yielded a melting point of 96 to 97 °C. Work on CCOC(=O)c1cc2c(Cl)cccc2n1CC#N yielded a melting point of 143 to 144 °C. Compound CCCc1nc(CO)c(C(=O)OCC)n1Cc1ccc(-c2ccccc2C(=O)OC(C)(C)C)cc1 has a melting point of 108 to 110 °C. In the case of Cc1cc(C)cc(S(=O)(=O)c2cccc(N)c2C#N)c1, the melting point is reported as 208 to 209 °C. O=C(O)C(=O)Nc1cccc(-c2nnn[nH]2)c1 showed a melting point of 240 °C. Work on CCOC(=O)C1=C(CN2C(=O)c3ccccc3C2=O)NC(CN2C(=O)c3ccccc3C2=O)=C(C(=O)OCC)C1c1ccccc1Cl yielded a melting point of 162 to 164 °C. In the case of C=C(C)C#Cc1ccc2c(c1)NC(=O)CC(c1cccc(C#N)c1)=N2, the melting point is reported as 231 °C. With N#Cc1ccc2c(c1)C(CCC1CC1)(C(F)(F)F)c1nc[nH]c(=O)c1N2 (configuration not stated) the melting point was > 280 °C. Work on O=C(O)CCC(=O)c1ccc(N2CCOCC2)cc1 yielded a melting point of 167 to 168 °C. With C#CC(=O)Oc1ccc(OCc2ccccc2)cc1 the melting point was 45 to 47.5 °C. CCCc1ccc(C=O)n1Cc1ccc(-c2ccccc2-c2nnn[nH]2)cc1 showed a melting point of 68 to 71 °C. Work on OC12CC3CC(C1)CC(O)(C3)C2 yielded a melting point of 169 °C. Oc1nc(-c2ccccc2)sc1CCc1ccccc1 showed a melting point of 127 to 128 °C. Compound COc1ccccc1NC(=O)c1ccc(COC2CCCCO2)cc1 (configuration not stated) has a melting point of 67 to 70 °C. CCCC(=O)OCc1ccc2oc(=O)c(C(=O)Oc3cncc(Cl)c3)cc2c1 gave a melting point of 146 to 148 °C. Work on OC(Cn1ccnc1)c1cccnc1 (configuration not stated) yielded a melting point of 119 to 121 °C. Work on O=C1c2ccc(O)cc2OCN1CCO yielded a melting point of 182 to 184 °C. For Cc1nc(-c2cccc3nc(N[C@@H]4CCc5ccccc54)ccc23)no1, the melting point was 105 °C. COc1ccc(F)cc1-c1cccc(-n2cnc(-c3nc(C)no3)c2)c1 gave a melting point of 153 to 158 °C. CCc1[nH]n(C2CCCC2)c2nc(-c3cc(C)nc(Cl)c3)nc(=O)c1-2 showed a melting point of 277 to 278 °C. Compound CC(=O)[C@H]1C[C@@H](C(N)=S)N(C(=O)OCc2ccc([N+](=O)[O-])cc2)C1 has a melting point of 168 to 170 °C. For COCC(C)OC(=O)C(=O)Nc1nc(-c2ccccc2)cs1 (configuration not stated), the melting point was 152 to 155 °C. Cc1cc2nncn2nc1-c1ccccc1 gave a melting point of 188 to 190 °C. In the case of O=C1CN2Cc3cc(C(=O)c4cccnc4)ccc3N=C2N1, the melting point is reported as 275 °C. COC1OC(COCc2ccccc2)C(OCc2ccccc2)C(NC(C)=O)C1OCc1ccccc1 (configuration not stated) gave a melting point of 147 to 151 °C. In the case of N#Cc1ccc(CO)cc1F, the melting point is reported as 70 to 72 °C. For C/C(NCC(C)C)=C(\C#N)C(N)=S, the melting point was 165 to 167 °C. Work on Cn1c(CNC[C@H]2CCCO2)cc2cc(NC(=O)c3ccc(OCC4CC4)cc3)ccc21 yielded a melting point of 138 to 139 °C. Work on O=C(NCc1cccnc1)Nc1cc(N2CC(c3ccccc3)CC2=O)ccn1 (configuration not stated) yielded a melting point of 179 to 180 °C. Work on COc1ccc(C(=O)CCCN2CCC(OC(=O)c3cc(Cl)c(N)c4c3OCC4)CC2)cc1OC yielded a melting point of 156 °C. CC(C)c1nc(CNC(=O)C(F)(F)F)n(C)c1Sc1cc(Cl)cc(Cl)c1 gave a melting point of 157 to 158 °C. CN(C)CCOc1cc2c(Nc3ccc(F)c(Cl)c3)c(C#N)cnc2cn1 showed a melting point of 131 to 132 °C. Cc1nc(-c2ccc(OCC(C)C)c(Br)c2)sc1C(=O)O showed a melting point of 200 to 202 °C. Compound Fc1ccccc1NC(=S)NCc1ccncc1 has a melting point of 145 °C. Compound Cc1cc(C)nc([NH+]([O-])C(=O)Cc2ccsc2)c1 (configuration not stated) has a melting point of 154 °C. For NC(=C[N+](=O)[O-])NC1=CC2CCC1C2 (configuration not stated), the melting point was 128 to 132 °C. Compound O=C(O)CCn1c(=O)c2ccccc2n(CCCCN2CCC(OC(c3ccccc3)c3ccccc3)CC2)c1=O has a melting point of 107 to 108 °C. In the case of O=C(NCCCCCCCCc1ccccc1)c1cc(-c2cccc(Cl)c2)c(OCCO)c(-c2cccc(Cl)c2)c1, the melting point is reported as 165 to 167 °C. For CCC1Cc2cc(C(C)C(=O)O)ccc2O1 (configuration not stated), the melting point was 70 to 72 °C. In the case of COC(=O)C(Cl)Cc1ccc2ccc(Oc3c(Cl)cc(C(F)(F)F)cc3Cl)cc2c1 (configuration not stated), the melting point is reported as 136 °C. Compound CN(C)C(=O)c1cccnc1SCc1ccccc1 has a melting point of 61 to 63 °C. O=C1c2cc(NCCO)ccc2OC12CC2 showed a melting point of 74 to 75 °C. COc1cc(N(Cc2cncs2)c2ccc(C(=O)O)cc2)ccc1C(N)=O gave a melting point of 197 °C. COc1ccc(-c2ccc(Cl)cc2)c(COc2ccc(-c3nc4cc(C(=O)O)ccc4n3C3CCCCC3)cc2)c1 gave a melting point of 248 to 249 °C. CCOC(=O)C1=C(COCCCc2nc3ccccc3n2C)NC(C)=C(C(=O)NC(C)(C)C)C1c1ccccc1Cl (configuration not stated) gave a melting point of 202 °C. In the case of CCOc1ccccc1O[C@@H]1CN(CC)C[C@H]1O (relative stereo), the melting point is reported as 73 to 75 °C. In the case of CCOC(=O)Cc1csc2nc(C(=O)NCc3cccc(OC)c3)[nH]c(=O)c12, the melting point is reported as 169 to 171 °C. Work on Cc1ccc(F)c(-n2cnc(-c3cnc4[nH]cc(C(=O)N[C@@H](C)C(C)(C)C)c4n3)c2)c1 yielded a melting point of 331 to 332 °C. Work on Cc1ccnc2c1N=C(C#N)c1cccnc1N2C1CC1 yielded a melting point of 192 to 193 °C. With O=C(O)C(=O)N1CCC(Oc2ccccc2)CC1 the melting point was 109 to 112 °C. For CC(C)CNC(=O)CN=Cc1ccccc1F, the melting point was 154 °C. With COCCc1nc2c(N)nc3c(c2n1CCOCCNC(=O)Nc1ccccc1)CCCC3 the melting point was 180 to 182 °C. O=C(O)c1cc(=O)c2cc3c(c(CC(O)CO)c2o1)CCCC3 (configuration not stated) showed a melting point of 217 to 218 °C. OC(CNC1=NCCN1)c1ccc(Cl)c(Cl)c1 (configuration not stated) showed a melting point of 148 °C. With COc1cc(Oc2ccc(C(=O)N(C(C)C)C3CCCCC3)cc2)cc(OC)c1OC the melting point was 124 °C. Work on Cc1nc(Cc2ccc(N)cc2)sc1C yielded a melting point of 91 to 92 °C. CCN(CC)CCNC(=O)c1c[nH]c2ccc(I)cc2c1=O gave a melting point of 234 to 236 °C. O=C(Nc1ccccc1)c1ccc(Cn2cnc3ccccc32)cc1 showed a melting point of 214 to 216 °C. With O=CNNc1ccc(NC(=S)N2CCCCC2)cc1 the melting point was 174 to 176 °C. Cc1[nH]c(C(=O)N2CCC(O)CC2)c(C)c1-c1nc2ccc(C(=O)c3ccccc3)cc2[nH]1 gave a melting point of 288 to 290 °C. Compound O=C(N[C@H](Cc1ccc(C(F)(F)F)cc1)[C@@H](O)c1ccc(F)cc1)c1ccnc2ccccc12 (racemic) has a melting point of 227 to 228 °C. For COc1ccc(OC)c(SCCCCC#N)c1, the melting point was 64 to 66 °C. Cc1ccsc1C(=O)Nc1ccc(C(=O)N2Cc3cccn3Cc3ccccc32)cc1 showed a melting point of 232 to 235 °C. With COc1cccc(-c2c[nH]c3ncnc(N)c23)c1 the melting point was 188 to 190 °C. Compound CC(C)Nc1cccnc1N1CCN(C(=O)c2ccc(C(=O)NCCCO)cn2)CC1 has a melting point of 139 to 140 °C. In the case of COC(=O)c1ccc2c(=O)c(Cc3ccccc3)coc2c1, the melting point is reported as 98 to 100 °C. NNP(=S)(NN)Oc1ccccc1 gave a melting point of 94 to 95 °C. For CC1=Nc2ccccc2N(Cc2ccccc2)C(=O)C1Cc1ccccc1 (configuration not stated), the melting point was 140 to 141 °C. In the case of CCOC(=O)N1CCN(c2ccncc2[N+](=O)[O-])CC1, the melting point is reported as 101 to 103 °C. In the case of CCn1c(C)c(I)c(=O)n(CC)c1=O, the melting point is reported as 159 to 162 °C. COc1ccccc1C(=O)c1[nH]c2cc(Cl)ccc2c1CC(=O)O gave a melting point of 214 to 217 °C. CC(=O)OCCSCCCC(=O)NC/C=C\COc1cc(CN2CCCCC2)ccn1 showed a melting point of 36 to 40 °C. Cc1ccnc(N2CCN(CCc3c(C)n4c5c(cc(Br)cc35)CCC4)CC2)c1 showed a melting point of 200 °C. Compound O=C1OCC2Cc3ccccc3OC12 (configuration not stated) has a melting point of 107 to 111 °C. OCC1=Cc2cc(Cl)ccc2Sc2sccc21 showed a melting point of 117 to 120 °C. In the case of CCOC(=O)c1cnc2c(NC(=O)c3c(Cl)cccc3Cl)cccc2c1CC(=O)O, the melting point is reported as 149 to 159 °C. For CC(=O)OCCCC(=C(c1ccccc1)c1ccccc1)c1ccccc1, the melting point was 80 to 81 °C. Work on CCn1c(=O)c2c(nc(/C=C/c3cc(OC)ccc3OC(=O)c3ccccc3)n2C)n(CC)c1=O yielded a melting point of 254 to 255 °C. Compound CCCCCCC1(CCCCCC)c2cc(C#N)ccc2-c2ccc(C#N)cc21 has a melting point of 116 to 118 °C.
